Assay: Head-to-side-chain cyclisation: Cys S-alkylation with bifunctional aldehyde linker 1-4 (benzyl bromide or bromoacetamide), then intramolecular reductive amination of the N-terminal amine with NaBH3CN (one pot, crude peptides)
Details: the molecule shown is the open-chain precursor, 100 mM MOPS pH 6.5 / about 20% MeCN, TCEP, 0.5 mM, 4.0 °C, 24.0 h, 2 steps, scale: 1 = smooth/efficient conversion to macrocycle as major UPLC-MS species, <1 = partial, mixture

COc1ccc(C=O)cc1NC(=O)CSC[C@H](NC(=O)CNC(=O)CNC(=O)[C@H](CO)NC(=O)[C@H](CO)NC(=O)[C@@H](NC(=O)[C@H](C)N)C(C)C)C(=O)N[C@@H](Cc1c[nH]c2ccccc12)C(=O)N[C@@H](C)C(N)=O
ring closure, product found (29-membered ring): 1

CC(=O)N[C@@H](CCCCN)C(=O)N[C@H](C(=O)N[C@@H](CO)C(=O)N[C@@H](CO)C(=O)NCC(=O)NCC(=O)N[C@@H](CSCC(=O)Nc1ccc2cc(C=O)ccc2c1)C(=O)N[C@@H](Cc1c[nH]c2ccccc12)C(=O)N[C@@H](C)C(N)=O)C(C)C
ring closure, product found (36-membered ring): < 1

CC(C)[C@H](NC(=O)[C@H](C)N)C(=O)N[C@@H](CO)C(=O)N[C@@H](CO)C(=O)NCC(=O)NCC(=O)N[C@@H](CSCc1ccc(C=O)cc1)C(=O)N[C@@H](Cc1c[nH]c2ccccc12)C(=O)N[C@@H](C)C(N)=O [H-Ala-Val-Ser-Ser-Gly-Gly-Cys(CH2-C6H4-4-CHO)-Trp-Ala-NH2]
ring closure, product found (28-membered ring): 1

CC(C)[C@H](NC(=O)[C@H](C)N)C(=O)N[C@@H](CO)C(=O)N[C@@H](CO)C(=O)NCC(=O)NCC(=O)N[C@@H](CO)C(=O)NCC(=O)N[C@@H](CSCC(=O)Nc1ccc2cc(C=O)ccc2c1)C(=O)N[C@@H](Cc1c[nH]c2ccccc12)C(=O)N[C@@H](C)C(N)=O
ring closure, product found (38-membered ring): 1

CC(C)[C@H](NC(=O)[C@@H](N)CCCCN)C(=O)N[C@@H](CO)C(=O)N[C@@H](CO)C(=O)NCC(=O)NCC(=O)N[C@@H](CSCc1ccc(C=O)cc1)C(=O)N[C@@H](Cc1c[nH]c2ccccc12)C(=O)N[C@@H](C)C(N)=O [H-Lys-Val-Ser-Ser-Gly-Gly-Cys(CH2-C6H4-4-CHO)-Trp-Ala-NH2]
ring closure, product found (28-membered ring): 1

CC(=O)N[C@@H](CCCCN)C(=O)N[C@H](C(=O)N[C@@H](CO)C(=O)N[C@@H](CO)C(=O)NCC(=O)NCC(=O)N[C@@H](CSCc1ccc(C=O)cc1)C(=O)N[C@@H](Cc1c[nH]c2ccccc12)C(=O)N[C@@H](C)C(N)=O)C(C)C [Ac-Lys-Val-Ser-Ser-Gly-Gly-Cys(CH2-C6H4-4-CHO)-Trp-Ala-NH2]
ring closure, product found (32-membered ring): < 1

CC(C)[C@H](NC(=O)[C@H](C)N)C(=O)N[C@@H](CC(N)=O)C(=O)N[C@@H](CCC(=O)O)C(=O)N[C@@H](CCCCN)C(=O)N[C@@H](Cc1c[nH]cn1)C(=O)N[C@@H](Cc1ccc(O)cc1)C(=O)N[C@@H](CSCC(=O)Nc1ccc(C=O)cc1)C(=O)N[C@@H](Cc1c[nH]c2ccccc12)C(=O)N[C@@H](C)C(N)=O
ring closure, product found (33-membered ring): 1

CC(=O)N[C@@H](CCCCN)C(=O)N[C@H](C(=O)N[C@@H](CO)C(=O)N[C@@H](CO)C(=O)NCC(=O)NCC(=O)N[C@@H](CSCC(=O)Nc1ccc(C=O)cc1)C(=O)N[C@@H](Cc1c[nH]c2ccccc12)C(=O)N[C@@H](C)C(N)=O)C(C)C
ring closure, product found (34-membered ring): < 1

COc1ccc(C=O)cc1NC(=O)CSC[C@H](NC(=O)[C@H](Cc1ccc(O)cc1)NC(=O)[C@H](Cc1c[nH]cn1)NC(=O)[C@H](CCCCN)NC(=O)[C@H](CCC(=O)O)NC(=O)[C@H](CC(N)=O)NC(=O)[C@@H](NC(=O)[C@H](C)N)C(C)C)C(=O)N[C@@H](Cc1c[nH]c2ccccc12)C(=O)N[C@@H](C)C(N)=O
ring closure, product found (32-membered ring): 1

CC(C)[C@H](NC(=O)[C@H](C)N)C(=O)N[C@@H](CO)C(=O)N[C@@H](CO)C(=O)NCC(=O)NCC(=O)N[C@@H](CO)C(=O)NCC(=O)N[C@@H](CSCC(=O)Nc1ccc(C=O)cc1)C(=O)N[C@@H](Cc1c[nH]c2ccccc12)C(=O)N[C@@H](C)C(N)=O
ring closure, product found (36-membered ring): 1

CC(C)[C@H](NC(=O)[C@H](C)N)C(=O)N[C@@H](CC(N)=O)C(=O)N[C@@H](CCC(=O)O)C(=O)N[C@@H](CCCCN)C(=O)N[C@@H](Cc1c[nH]cn1)C(=O)N[C@@H](Cc1ccc(O)cc1)C(=O)N[C@@H](CSCc1ccc(C=O)cc1)C(=O)N[C@@H](Cc1c[nH]c2ccccc12)C(=O)N[C@@H](C)C(N)=O
ring closure, product found (31-membered ring): 1

CC(C)[C@H](NC(=O)[C@H](C)N)C(=O)N[C@@H](CO)C(=O)N[C@@H](CO)C(=O)NCC(=O)NCC(=O)N[C@@H](CSCC(=O)Nc1ccc2cc(C=O)ccc2c1)C(=O)N[C@@H](Cc1c[nH]c2ccccc12)C(=O)N[C@@H](C)C(N)=O
ring closure, product found (32-membered ring): 1

CC(C)[C@H](NC(=O)[C@H](C)N)C(=O)N[C@@H](CO)C(=O)N[C@@H](CO)C(=O)NCC(=O)NCC(=O)N[C@@H](CSCC(=O)Nc1ccc(C=O)cc1)C(=O)N[C@@H](Cc1c[nH]c2ccccc12)C(=O)N[C@@H](C)C(N)=O
ring closure, product found (30-membered ring): 1

CC(C)[C@H](NC(=O)[C@H](C)N)C(=O)N[C@@H](CO)C(=O)N[C@@H](CO)C(=O)NCC(=O)NCC(=O)N[C@@H](CO)C(=O)NCC(=O)N[C@@H](CSCc1ccc(C=O)cc1)C(=O)N[C@@H](Cc1c[nH]c2ccccc12)C(=O)N[C@@H](C)C(N)=O
ring closure, product found (34-membered ring): 1

CC(C)[C@H](NC(=O)[C@H](C)N)C(=O)N[C@@H](CC(N)=O)C(=O)N[C@@H](CCC(=O)O)C(=O)N[C@@H](CCCCN)C(=O)N[C@@H](Cc1c[nH]cn1)C(=O)N[C@@H](Cc1ccc(O)cc1)C(=O)N[C@@H](CSCC(=O)Nc1ccc2cc(C=O)ccc2c1)C(=O)N[C@@H](Cc1c[nH]c2ccccc12)C(=O)N[C@@H](C)C(N)=O
ring closure, product found (35-membered ring): 1

CC(C)[C@H](NC(=O)[C@@H](N)CCCCN)C(=O)N[C@@H](CO)C(=O)N[C@@H](CO)C(=O)NCC(=O)NCC(=O)N[C@@H](CSCC(=O)Nc1ccc2cc(C=O)ccc2c1)C(=O)N[C@@H](Cc1c[nH]c2ccccc12)C(=O)N[C@@H](C)C(N)=O
ring closure, product found (32-membered ring): 1

COc1ccc(C=O)cc1NC(=O)CSC[C@H](NC(=O)CNC(=O)[C@H](CO)NC(=O)CNC(=O)CNC(=O)[C@H](CO)NC(=O)[C@H](CO)NC(=O)[C@@H](NC(=O)[C@H](C)N)C(C)C)C(=O)N[C@@H](Cc1c[nH]c2ccccc12)C(=O)N[C@@H](C)C(N)=O
ring closure, product found (35-membered ring): 1

COc1ccc(C=O)cc1NC(=O)CSC[C@H](NC(=O)CNC(=O)CNC(=O)[C@H](CO)NC(=O)[C@H](CO)NC(=O)[C@@H](NC(=O)[C@@H](N)CCCCN)C(C)C)C(=O)N[C@@H](Cc1c[nH]c2ccccc12)C(=O)N[C@@H](C)C(N)=O
ring closure, product found (29-membered ring): 1

CC(C)[C@H](NC(=O)[C@@H](N)CCCCN)C(=O)N[C@@H](CO)C(=O)N[C@@H](CO)C(=O)NCC(=O)NCC(=O)N[C@@H](CSCC(=O)Nc1ccc(C=O)cc1)C(=O)N[C@@H](Cc1c[nH]c2ccccc12)C(=O)N[C@@H](C)C(N)=O
ring closure, product found (30-membered ring): 1

COc1ccc(C=O)cc1NC(=O)CSC[C@H](NC(=O)CNC(=O)CNC(=O)[C@H](CO)NC(=O)[C@H](CO)NC(=O)[C@@H](NC(=O)[C@H](CCCCN)NC(C)=O)C(C)C)C(=O)N[C@@H](Cc1c[nH]c2ccccc12)C(=O)N[C@@H](C)C(N)=O
ring closure, product found (33-membered ring): < 1
